Test results as given in patent US6242462A, “Pharmacological agents” (Eli Lilly and Company, priority 2000, dated 2001).

Legend:
human GluR1 [1] = target: T1, human GluR1 (Homo sapiens, UniProt P42261); assay: Binding: displacement of 3H AMPA on GluR1-expressing cells (Table 1)
T1 construct: expressed in transfected cells; host or cells: HEK293
Source text: (§1) The selectivity of compounds acting at GluR5 receptors may be determined by measurement of activity at other AMPA and kainate receptors including receptor-ligand binding studies and whole-cell voltage clamp electro-physiological recordings of functional activity at human GluR1, GluR2, GluR3 and GluR4 receptors (Fletcher et al., 1995, Recept. Channels 3; 21-31), receptor-ligand binding studies and whole-cell voltage clamp electrophysiological recordings of functional activity at human GluR6 receptors (Hoo et al., Recept. Channels 2; 327-338) and whole-cell voltage clamp electrophysiological recordings of functional activity at AMPA receptors in acutely isolated cerebellar Purkinje neurons (Bleakman et al., 1996, Mol. Pharmacol. 49; 581-585) and other tissues expressing AMPA receptors (Fletcher and Lodge, 1996, Phannacol. Ther. 70; 65-89).
(§2) Cell lines (HEK293 cells) stably transfected with human GluR5 receptors were employed. Displacement of 3H AMPA by increasing concentrations of test compound was used on GluR1-4-expressing cells and 3H kainate (KA) on GluR5 and expressing cells. Estimated activity (Ki) in nM was as follows.

human GluR4 [2] = target: T2, human GluR4 (Homo sapiens, UniProt P48058); assay: Binding: displacement of 3H AMPA on GluR4-expressing cells (Table 1)
T2 construct: expressed in transfected cells; host or cells: HEK293
T2 sequence (P48058 21-902): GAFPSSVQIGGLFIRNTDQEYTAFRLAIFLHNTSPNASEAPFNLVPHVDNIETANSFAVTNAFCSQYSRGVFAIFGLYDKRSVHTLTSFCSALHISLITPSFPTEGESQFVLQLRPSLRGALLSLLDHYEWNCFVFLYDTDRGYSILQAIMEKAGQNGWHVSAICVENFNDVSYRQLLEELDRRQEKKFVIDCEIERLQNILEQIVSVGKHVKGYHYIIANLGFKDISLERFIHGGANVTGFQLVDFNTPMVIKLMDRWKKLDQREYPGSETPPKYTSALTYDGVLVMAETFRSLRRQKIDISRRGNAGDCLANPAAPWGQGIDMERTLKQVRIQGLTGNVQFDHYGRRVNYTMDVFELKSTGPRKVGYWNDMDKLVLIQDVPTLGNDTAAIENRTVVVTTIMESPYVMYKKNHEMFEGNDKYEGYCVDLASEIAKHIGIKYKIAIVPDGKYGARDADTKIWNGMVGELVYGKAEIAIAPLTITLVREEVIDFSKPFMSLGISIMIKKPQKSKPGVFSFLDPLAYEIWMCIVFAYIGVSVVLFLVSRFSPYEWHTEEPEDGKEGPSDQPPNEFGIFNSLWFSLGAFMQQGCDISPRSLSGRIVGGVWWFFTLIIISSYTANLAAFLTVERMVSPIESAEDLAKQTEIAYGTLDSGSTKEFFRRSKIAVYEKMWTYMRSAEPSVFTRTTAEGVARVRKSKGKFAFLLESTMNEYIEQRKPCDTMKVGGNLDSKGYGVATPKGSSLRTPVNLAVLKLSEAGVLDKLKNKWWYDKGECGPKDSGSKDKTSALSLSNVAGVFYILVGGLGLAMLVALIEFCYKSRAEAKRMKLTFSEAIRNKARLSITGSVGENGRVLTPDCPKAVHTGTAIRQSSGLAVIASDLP
Source text: as §1, §2

[3] = tested on: acutely isolated dorsal root ganglion neurons (DRG); assay: Patch-clamp electrophysiology, kainate induced current in acutely isolated dorsal root ganglion neurons (Table 2); assay type: cell-based; conditions: Rattus norvegicus, DRG neuron, based on % inhibition of 30 μM kainate induced current
Source text: (§3) GluR5 receptor antagonists may be identified by radiolabelled ligand binding studies at the cloned and expressed human GluR5 receptor (Korczak et al., 1994, Recept. Channels 3; 41-49), by whole cell voltage clamp electro-physiological recordings of functional activity at the human GluR5 receptor (Korczak et al., 1994, Recept. Channels 3; 41-49) and by whole cell voltage clamp electro-physiological recordings of currents in acutely isolated rat dorsal root ganglion neurons (Bleakman et al., 1996, Mol. Pharmacol. 49; 581-585).
(§4) Functional studies were carried out on HEK293 cells stably transfected with human GluR receptors and on acutely isolated dorsal root ganglion neurons (DRG) using patch-clamp technology (Bleakman et al., 1996, Mol. Pharmacol., 49, 581-585). IC50 values (μM) for test Compound A were estimated for GluR1-4 vs 100 μM AMPA and GluR5 and GluR6 vs 100 μM KA with the following results:
*Based on % inhibition of 30 μM kainate induced current.

human GluR3 [4] = target: T3, human GluR3 (Homo sapiens, UniProt P42263); assay: Binding: displacement of 3H AMPA on GluR3-expressing cells (Table 1)
T3 construct: expressed in transfected cells; host or cells: HEK293
Source text: as §1, §2

human GluR6 [5] = target: T4, human GluR6 (Homo sapiens, UniProt Q13002); assay: Patch-clamp electrophysiology, HEK293 cells stably transfected with human GluR6, vs 100 μM KA (Table 2); assay type: cell-based
T4 construct: expressed in transfected cells; host or cells: HEK293
T4 sequence (Q13002 32-908): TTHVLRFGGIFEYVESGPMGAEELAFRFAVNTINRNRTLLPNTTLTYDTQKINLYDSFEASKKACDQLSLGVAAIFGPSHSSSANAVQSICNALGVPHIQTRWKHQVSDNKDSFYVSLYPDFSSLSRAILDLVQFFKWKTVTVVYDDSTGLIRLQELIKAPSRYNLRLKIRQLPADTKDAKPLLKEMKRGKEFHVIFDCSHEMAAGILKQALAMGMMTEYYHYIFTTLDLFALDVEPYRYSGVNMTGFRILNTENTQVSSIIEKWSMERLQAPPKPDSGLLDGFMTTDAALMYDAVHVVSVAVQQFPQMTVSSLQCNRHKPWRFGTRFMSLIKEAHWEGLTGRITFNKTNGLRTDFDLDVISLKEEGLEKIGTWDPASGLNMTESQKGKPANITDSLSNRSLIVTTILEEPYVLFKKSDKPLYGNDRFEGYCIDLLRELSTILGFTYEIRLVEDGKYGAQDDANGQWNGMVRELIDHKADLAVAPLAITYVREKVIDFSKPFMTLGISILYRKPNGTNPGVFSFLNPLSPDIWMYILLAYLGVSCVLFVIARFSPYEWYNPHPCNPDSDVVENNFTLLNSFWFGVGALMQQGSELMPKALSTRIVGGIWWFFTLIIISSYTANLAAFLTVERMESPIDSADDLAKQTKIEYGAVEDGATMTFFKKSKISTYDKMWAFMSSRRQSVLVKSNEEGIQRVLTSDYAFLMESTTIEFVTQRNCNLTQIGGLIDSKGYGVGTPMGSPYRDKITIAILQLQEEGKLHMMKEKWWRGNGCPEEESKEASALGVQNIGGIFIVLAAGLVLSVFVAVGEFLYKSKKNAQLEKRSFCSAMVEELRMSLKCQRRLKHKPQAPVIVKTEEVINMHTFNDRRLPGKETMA
Source text: as §1
as §4, with “results: […]” for “results:”

human GluR1 [6] = target: T1, human GluR1; assay: Patch-clamp electrophysiology, HEK293 cells stably transfected with human GluR1, vs 100 μM AMPA (Table 2); assay type: cell-based
Source text: as §1
as §4, with “results: […]” for “results:”

human GluR6 [7] = target: T4, human GluR6; assay: Binding: displacement of radioligand (3H kainate) on GluR6 (Table 1); conditions: read-out: % displ, GluR6
Source text: as §1, §2

human GluR4 [8] = target: T2, human GluR4; assay: Patch-clamp electrophysiology, HEK293 cells stably transfected with human GluR4, vs 100 μM AMPA (Table 2); assay type: cell-based
Source text: as §1
as §4, with “results: […]” for “results:”

human GluR3 [9] = target: T3, human GluR3; assay: Patch-clamp electrophysiology, HEK293 cells stably transfected with human GluR3, vs 100 μM AMPA (Table 2); assay type: cell-based
Source text: as §1
as §4, with “results: […]” for “results:”

human GluR2 [10] = target: T5, human GluR2 (Homo sapiens, UniProt P42262); assay: Binding: displacement of 3H AMPA on GluR2-expressing cells (Table 1)
T5 construct: expressed in transfected cells; host or cells: HEK293
Source text: (§5) Cell lines (HEK293 cells) stably transfected with human GluR5 receptors were employed. Displacement of 3H AMPA by increasing concentrations of test compound was used on GluR1-4-expressing cells and 3H kainate (KA) on GluR5 and expressing cells.

human GluR5 [11] = target: T6, human GluR5 (Homo sapiens, UniProt P39086); assay: Selectivity at GluR5 over other ionotropic glutamate receptors (binding and electrophysiology); conditions: GluR5 vs other ionotropic glutamate receptors
Target sequence in this assay (P39086 31-918): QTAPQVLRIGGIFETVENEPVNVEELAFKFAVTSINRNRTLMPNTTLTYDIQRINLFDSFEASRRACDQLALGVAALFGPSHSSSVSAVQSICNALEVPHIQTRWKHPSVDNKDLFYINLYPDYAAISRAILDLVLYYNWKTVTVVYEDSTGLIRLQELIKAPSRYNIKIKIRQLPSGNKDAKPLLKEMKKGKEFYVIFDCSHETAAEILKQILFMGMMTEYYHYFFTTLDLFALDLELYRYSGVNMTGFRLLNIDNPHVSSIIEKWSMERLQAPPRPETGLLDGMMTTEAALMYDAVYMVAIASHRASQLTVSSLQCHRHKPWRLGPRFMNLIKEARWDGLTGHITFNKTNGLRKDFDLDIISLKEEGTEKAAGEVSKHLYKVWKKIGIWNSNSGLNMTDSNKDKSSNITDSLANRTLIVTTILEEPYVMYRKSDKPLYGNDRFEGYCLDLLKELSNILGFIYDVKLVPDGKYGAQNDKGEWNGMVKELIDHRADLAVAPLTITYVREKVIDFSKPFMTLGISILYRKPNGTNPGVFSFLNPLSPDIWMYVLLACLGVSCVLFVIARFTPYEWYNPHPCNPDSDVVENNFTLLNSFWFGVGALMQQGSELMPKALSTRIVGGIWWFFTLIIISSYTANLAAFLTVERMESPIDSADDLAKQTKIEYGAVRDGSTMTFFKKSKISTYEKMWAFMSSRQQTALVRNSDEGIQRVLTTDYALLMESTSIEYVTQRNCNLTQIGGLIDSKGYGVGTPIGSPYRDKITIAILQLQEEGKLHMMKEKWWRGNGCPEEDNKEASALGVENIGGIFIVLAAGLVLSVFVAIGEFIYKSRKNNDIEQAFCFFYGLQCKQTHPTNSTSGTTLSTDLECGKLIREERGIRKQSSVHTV

human GluR2 [12] = target: T5, human GluR2; assay: Patch-clamp electrophysiology, HEK293 cells stably transfected with human GluR2, vs 100 μM AMPA (Table 2); assay type: cell-based
Source text: as §1
as §4, with “results: […]” for “results:”

human GluR5 [13] = target: T6, human GluR5; assay: Binding: displacement of 3H kainate on GluR5-expressing HEK293 cells (Table 1); set-up: expressed in transfected cells; host or cells: HEK293
Source text: as §5
Target sequence in this assay (P39086 31-905 isoform P39086-2 limits assumed): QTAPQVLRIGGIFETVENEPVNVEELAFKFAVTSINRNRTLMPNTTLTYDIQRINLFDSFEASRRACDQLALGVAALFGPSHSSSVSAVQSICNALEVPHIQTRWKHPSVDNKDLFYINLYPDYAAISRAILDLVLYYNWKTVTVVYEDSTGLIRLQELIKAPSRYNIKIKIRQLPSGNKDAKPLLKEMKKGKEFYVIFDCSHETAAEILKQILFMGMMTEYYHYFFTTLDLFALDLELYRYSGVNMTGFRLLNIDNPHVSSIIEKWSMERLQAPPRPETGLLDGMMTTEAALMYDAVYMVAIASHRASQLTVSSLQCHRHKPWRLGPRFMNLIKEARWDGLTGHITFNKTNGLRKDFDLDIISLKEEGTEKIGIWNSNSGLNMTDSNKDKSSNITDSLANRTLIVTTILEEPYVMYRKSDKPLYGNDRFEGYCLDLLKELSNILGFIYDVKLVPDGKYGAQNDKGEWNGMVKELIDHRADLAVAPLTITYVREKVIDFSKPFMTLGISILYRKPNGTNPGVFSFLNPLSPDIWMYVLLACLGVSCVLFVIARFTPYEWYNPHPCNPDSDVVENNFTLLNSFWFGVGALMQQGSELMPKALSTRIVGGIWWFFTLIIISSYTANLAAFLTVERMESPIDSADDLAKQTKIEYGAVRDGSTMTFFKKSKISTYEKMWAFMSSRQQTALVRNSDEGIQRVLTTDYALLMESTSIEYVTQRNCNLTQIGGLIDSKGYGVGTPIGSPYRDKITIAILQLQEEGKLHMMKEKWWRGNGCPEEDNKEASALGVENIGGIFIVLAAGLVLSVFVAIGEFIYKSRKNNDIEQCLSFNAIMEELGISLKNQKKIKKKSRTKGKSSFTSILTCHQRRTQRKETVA

human GluR5 [14] = target: T6, human GluR5; assay: Patch-clamp electrophysiology, HEK293 cells stably transfected with human GluR5, vs 100 μM KA (Table 2); assay type: cell-based; set-up: expressed in transfected cells; host or cells: HEK293
Source text: as §3
as §4, with “results: […]” for “results:”
Target sequence in this assay (P39086 31-905 isoform P39086-2 limits assumed): as above

tail flick response [15] = assay: Tail Flick Test in mice; assay type: in vivo; conditions: subcutaneous, 3, 10, and 30 mg/kg
Description: (§6) This well known test measures the effect of a test compound on the time taken for an animal to flick its tail out of a focused beam of light. In the test, a beam of light from a lamp is focused on a surface, and the lamp is then switched off. Treated and untreated (control) animals are restrained, with their tails positioned at the focal point of the beam of light from the lamp. The lamp is then switched on, and the time taken for the animal's tail to respond by moving is recorded.

tail flick response [16] = assay: Tail Flick Test in cynomolgous primates; assay type: in vivo; conditions: oral, 0.03, 0.1, 0.3 and 3 mg/kg
Description: as §6

[17] = tested on: acetic acid induced writhing; assay: Acetic acid induced mouse writhing test; assay type: in vivo, male CD-1 mice; conditions: mice; 1, 3, 10 and 30 mg/kg; 0.5% acetic acid i.p.
Description: 3) Acetic acid induced mouse writhing test.
This test measures the ability of a test compound to reduce the amount of writhing induced by intraperitoneal injection of acetic acid in mice.
Doses of test compound or control are administered to male CD-1 mice. Each animal is then administered 0.5% acetic acid in a volume of […] intraperitoneally. The animals are then placed in individual plexiglas observation chambers and the total number of writhes (flattening of the abdominal wall and asymmetric stretching and extending of the body and hindlimbs) recorded between 5 and 10 minutes after acetic acid administration.

pain = assay: Animal models of pain; conditions: in vivo

T1 sequence (P42261 19-906): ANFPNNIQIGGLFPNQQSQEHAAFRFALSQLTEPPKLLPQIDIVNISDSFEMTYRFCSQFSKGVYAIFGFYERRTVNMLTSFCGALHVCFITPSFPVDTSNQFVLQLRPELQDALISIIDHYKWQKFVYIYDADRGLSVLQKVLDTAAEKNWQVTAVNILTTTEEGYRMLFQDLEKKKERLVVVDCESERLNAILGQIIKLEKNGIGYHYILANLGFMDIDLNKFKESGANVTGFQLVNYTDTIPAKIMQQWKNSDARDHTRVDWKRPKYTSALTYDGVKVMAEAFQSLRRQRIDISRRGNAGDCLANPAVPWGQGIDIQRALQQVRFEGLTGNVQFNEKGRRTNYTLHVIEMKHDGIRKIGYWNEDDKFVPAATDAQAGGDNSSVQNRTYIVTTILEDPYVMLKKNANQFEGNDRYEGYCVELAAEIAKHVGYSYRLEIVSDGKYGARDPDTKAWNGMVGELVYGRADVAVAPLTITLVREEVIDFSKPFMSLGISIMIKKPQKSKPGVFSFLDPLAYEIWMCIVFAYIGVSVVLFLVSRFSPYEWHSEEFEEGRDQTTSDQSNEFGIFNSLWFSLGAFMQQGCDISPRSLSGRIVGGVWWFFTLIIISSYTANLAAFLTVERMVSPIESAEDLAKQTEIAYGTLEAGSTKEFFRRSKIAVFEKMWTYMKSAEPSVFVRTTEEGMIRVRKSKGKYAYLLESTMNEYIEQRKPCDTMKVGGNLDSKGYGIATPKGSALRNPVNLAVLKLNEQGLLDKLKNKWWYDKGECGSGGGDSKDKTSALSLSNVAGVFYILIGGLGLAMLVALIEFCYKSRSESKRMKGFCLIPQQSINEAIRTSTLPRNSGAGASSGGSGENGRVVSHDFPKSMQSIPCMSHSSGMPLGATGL

SMILES: O=C(O)c1ccc(C[C@H]2CC[C@H]3CN[C@H](C(=O)O)C[C@H]3C2)cc1 (relative stereo) [C, 3SR, 4aRS, 6SR, 8aRS-6-(((4-carboxy)phenyl)methyl)-1,2,3-4,4a,5,6,7,8,8a-decahydroisoquinoline-3-carboxylic acid]
- inhibition at 1000 µM (human GluR1 [1]; at 1 mM, 3H AMPA): 21%
- inhibition at 1000 µM (human GluR4 [2]; at 1 mM, 3H AMPA): 23%

SMILES: O=C(O)[C@@H]1C[C@H]2C[C@@H](COCc3nn[nH]n3)CC[C@H]2CN1 (relative stereo) [Compound A, 3SR, 4aRS, 6SR, 8aRS-6-[(1(2)H-tetrazol-5-yl)methoxy-methyl]decahydroisoquinoline-3-carboxylic acid]
- IC50 [3]: 0.6 µM
- Estimated activity (Ki), GluR3 (human GluR3 [4]): 47.793 µM
- Estimated activity (Ki), GluR1 (human GluR1 [1]; displacement of 3H AMPA): 150.686 µM
- IC50 (human GluR6 [5]): > 100 µM
- Estimated activity (Ki), GluR4 (human GluR4 [2]; displacement of 3H AMPA): 31.606 µM
- IC50 (human GluR1 [6]): > 100 µM
- inhibition at 100 µM (human GluR6 [7]): 6%
- IC50 (human GluR4 [8]): > 100 µM
- IC50 (human GluR3 [9]): > 100 µM
- Estimated activity (Ki), GluR2 (human GluR2 [10]): 35.337 µM
- selective GluR5 receptor antagonism (human GluR5 [11]): selective GluR5 receptor antagonists
- IC50 (human GluR2 [12]): > 100 µM
- Estimated activity (Ki), GluR5 (human GluR5 [13]): 3.061 µM
- IC50 (human GluR5 [14]): 3.9 ± 0.5 µM

SMILES: O=C(O)[C@@H]1C[C@H]2C[C@@H](COCc3nn[nH]n3)CC[C@H]2CN1 [B, 3S,4aR,6S,8aR-6-((((1H-Tetrazole-5-yl)methyl)oxy)methyl)-1,2,3,4,4a,5,6,7,8,8a-decahydroisoquinoline-3-carboxylic Acid]
- response time (tail flick) (tail flick response [15]): dose dependent increase in response time
- selective GluR5 receptor antagonism (human GluR5 [11]): selective GluR5 receptor antagonists
- selective GluR5 receptor antagonism (human GluR5 [11]; listed as (3S,4aR,6S,8aR)-6-[(1(2)H-tetrazol-5-yl)methoxymethyl]decahydroisoquinoline-3-ca): selective GluR5 antagonist
- selective GluR5 receptor antagonism (human GluR5 [11]; listed as Example 1): selective GluR5 antagonist
- response time (tail flick) (tail flick response [16]): dose dependent increase in response time
- Estimated activity (Ki), GluR5 (human GluR5 [13]): 5.823 µM
- writhing [17]: dose dependent reduction in writhing
- effectiveness in animal models of pain (pain): effective in animal models of pain

SMILES: O=C(O)c1ccc(C[C@H]2CC[C@H]3CN[C@H](C(=O)O)C[C@H]3C2)cc1 [D, 3S,4aR,6S,8aR-6-(((4-carboxy)phenyl)methyl)-1,2,3,4,4a,5,6,7,8,8a-decahydroisoquinoline-3-carboxylic acid]
- IC50 [3]: 0.98 µM
- IC50 (human GluR6 [5]): > 100 µM
- IC50 (human GluR4 [8]): > 100 µM
